The results in this text go back to PubChem BioAssay (NCI).

Several values for one entry are separate records, joined by “and”; a condition that tells them apart may be missing. Equal values may be shown once.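 Compound exposure: 48 hours, 5 concentrations, 96-well plates. GI50: concentration for 50% inhibition of growth. The concentration for full growth arrest is given as TGI.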

Holding throughout (experiment): inhibition of tumour cell growth, NCI panel, 48 h
For assay [1], the system named is MOLT-4 leukemia.
In assay [2] the test system is HT29 colon.
Assay [3] concerns SF-539 CNS.
For assay [4], the system named is MALME-3M melanoma.
Assay [5] deals with SK-OV-3 ovarian.
For assay [6], the system named is EKVX NSCLC.
Assay [7] deals with HOP-62 NSCLC.
Assay [8] concerns SR leukemia.
Assay [9] concerns KM12 colon.
Assay [10] deals with MCF7 breast.

Consider `O=C(/C=C/c1ccc(C(F)(F)F)cc1)c1ccc(Nc2nc(NCCO)nc(N3CCOCC3)n2)cc1`, for which the GI50 in assay [1] is 2.45 µM; in [2], 2 µM; in assay [3], 1.64 µM; in [4], 2.91 µM; in assay [5], 3.82 µM; in [6], 2.44 µM. Moreover, the GI50 was 2.22 µM in assay [7], 3100 nM in [8], 1.8 µM in assay [9] and 1250 nM in assay [10]. Moreover, the TGI was 9.05 µM in [1]; 4.51 µM in assay [2]; 3.06 µM in assay [3]; 10.2 µM in assay [4]; more than 100 µM in [5]; 8.01 µM in assay [6]. Also, the TGI in assay [7] was 6.57 µM; in assay [8] it was more than 100 µM; in assay [9], 3.3 µM; in [10], 3.95 µM.
Consider `S=C(Nc1ccccc1)N(Cc1ccccc1)c1ccccc1`, for which the TGI in assay [1] was more than 100 µM; in assay [2] it was 85.9 µM; in [3], 66 µM; in [4], 37.2 µM; in assay [5] it was more than 100 µM; in [6], 58.4 µM. Further, the TGI was more than 100 µM in assay [7], more than 100 µM in assay [8], 69.6 µM in [9] and more than 100 µM in assay [10].
In the case of `Oc1ccc(N=Nc2ccc(N=Nc3ccccc3)cc2)cc1`, the GI50 is 0.351 µM in assay [1]; 2.86 µM in [2]; 0.712 µM in assay [3]; 11.6 µM in assay [4]; 3.29 µM in assay [5]; 2.49 µM in [6]. For the same compound, the GI50 in [7] was 2.7 µM; in assay [8], 1790 nM; in [9] it was 2.98 µM; in [10] it was 1500 nM. The TGI in assay [1] stood at 11.9 µM; in assay [2], 9.68 µM; in assay [3], 3.03 µM; in [4] it was 25.7 µM; in [5], 7.87 µM; in [6] it was 12.5 µM. The TGI in [7] came to 9.05 µM; in [8], 14 µM; in [9], 16.6 µM; in assay [10] it was 6.86 µM.
Regarding `COc1ccc2c(c1)OC(N)=C(C#N)C2c1ccc(F)cc1` (centres undefined), the GI50 in assay [1] is 1.32 µM; in [2] it was 0.625 µM; in [3] it was 1.64 µM; in [4], 12.9 µM; in assay [5], 2.94 µM; in assay [6] it was 5.09 µM. Further, the GI50 in assay [7] is 0.986 µM; in [8] it was 510 nM; in [9], 0.656 µM; in assay [10], 522 nM. Besides, the TGI was more than 100 µM in assay [1]; 13.5 µM in assay [2]; 6.58 µM in [3]; 77.9 µM in [4]; 66.3 µM in [5]; more than 100 µM in [6]. Besides, the TGI was more than 100 µM in [7], more than 100 µM in [8], 25.8 µM in assay [9] and more than 100 µM in assay [10].
Take `O=P1(O)c2ccccc2Nc2cc(C(F)(F)F)ccc21`: the TGI in assay [1], in [2], in [3], in assay [4], in [5] and in [6] was more than 100 µM in each case. Further, the TGI in [7], in assay [8], in assay [9] and in assay [10] was more than 100 µM each time.
On to `N#Cc1nc2cc(F)c(F)cc2nc1-c1ccc(Cl)cc1`, for which the GI50 was 3.21 µM in assay [1]; 7.8 µM in [2]; more than 60.6 µM in assay [3]; 15.8 µM in [4]; more than 46.7 µM in assay [5]; 10.4 µM in [6]. The GI50 was 45 µM in assay [7], 1700 nM in assay [8], 51.9 µM in [9] and 13100 nM in assay [10]. Also, the TGI in assay [1] is more than 28.3 µM; in assay [2], more than 100 µM; in assay [3], more than 100 µM; in [4] it was 39.1 µM; in assay [5], more than 88 µM; in assay [6] it was more than 69.4 µM. The TGI in assay [7] is more than 100 µM; in assay [8], 4.35 µM; in [9], more than 100 µM; in assay [10] it was more than 100 µM.
`CNc1nc(N(C)C)nc(N(C)C)n1`: the GI50 is > 100 µM and 1810 µM in [1]; > 100 µM and 518 µM in assay [2]; > 100 µM and 1350 µM in [3]; > 100 µM and 1160 µM in [4]; > 100 µM and 1390 µM in assay [5]; > 100 µM and 2180 µM in assay [6]. The GI50 was > 100 µM and 970 µM in assay [7]; more than 100000 nM in assay [8]; > 100 µM and 1450 µM in assay [9]. Moreover, the TGI in [1] was > 100 µM and 7060 µM; in assay [2], > 100 µM and 3650 µM; in [3] it was > 100 µM and 3580 µM; in assay [4] it was > 100 µM and 2110 µM; in [5], > 100 µM and 3640 µM; in [6], > 100 µM and 4800 µM. Moreover, the TGI in assay [7] is > 100 µM and 1890 µM; in assay [8], more than 100 µM; in assay [9], > 100 µM and 3420 µM; in assay [10], 1790 µM.
As for `CN(C)CCNC(=O)c1cc2c3ccccc3[nH]c2c2ncccc12`, the GI50 was 3.46 µM in assay [1]; 5.27 µM in assay [2]; 8.87 µM in assay [3]; 10.7 µM in [4]; 23.5 µM in assay [5]; 7.81 µM in assay [6]. The GI50 in assay [7] was 11.1 µM; in assay [8], 3340 nM; in assay [9] it was 12.8 µM; in assay [10], 4530 nM. For the same compound, the TGI was 16.5 µM in assay [1]; 34.1 µM in [2]; 21.1 µM in assay [3]; 26.5 µM in [4]; more than 100 µM in assay [5]; 38.2 µM in assay [6]. For the same compound, the TGI was 37.5 µM in assay [7], 13.2 µM in assay [8], 77.4 µM in [9] and 20.9 µM in [10].
